Patent US7407940B2, “Antimicrobial hexapeptides” (Helix BioMedix Inc., priority 2005, dated 2008)
Where no end group is shown, it is not given here. [ ]: non-standard residue; d: D form. The star is where a group is joined. Oleoyl = CCCCCCCC/C=C\CCCCCCCC(=O)*; Stearoyl = CCCCCCCCCCCCCCCCCC(=O)*; Palmitoyl = CCCCCCCCCCCCCCCC(=O)*; Myristoyl = CCCCCCCCCCCCCC(=O)*; Nonanoyl = CCCCCCCCC(=O)*; Octanoyl = CCCCCCCC(=O)*

Columns and labels:
[1] = system: Escherichia coli UB1005; experiment: MIC, broth microdilution, E. coli; assay type: cell-based; set-up: unit not given here
Protocol: (§1) MICs (minimal inhibitory concentrations) were determined for the hexapeptides of interest using a slightly modified version of the NCCLS (National Committee for Clinical Laboratory Standards) broth microdilution method as described previously (Steinberg et al., AAC 41: 1738, 1997). Briefly, antimicrobial agents were prepared as 10× concentrates in the most appropriate solvent. For the hexapeptide, 0.01% acetic acid containing 0.2% bovine serum albumin as a carrier protein was used. Inocula were prepared by resuspending colonies from a BAP (please spell out this term) in medium and adjusting the suspension to match that of a 0.5 McFarland standard. The suspension was diluted into fresh medium (as recommended by NCCLS for the organism) to give 2×10^5 to 7×10^5 CFU/ml for bacteria or 2×10^3 to 7×10^3 CFU/ml for Candida. After dispensing 100 μl aliquots of the microbial suspension into each well of a 96-well polypropylene microtiter plate, 11 μl of test compound was added. The MIC was defined as the lowest concentration of drug which prevented visible turbidity after 16 to 20 hours (bacteria) or 46 to 50 hours (Candida) at 35° C.

[2] = system: Salmonella typhimurium 14028S; experiment: MIC, broth microdilution, S. typhimurium; assay type: cell-based; set-up: unit not given here; settings: for Anti-microbial activity (MIC): S. typhimurium 14028S; for MIC, lipid length SAR: S.typhimurium
Protocol: as §1

[3] = system: Pseudomonas aeruginosa; assay type: cell-based; set-up: MIC, lipid length SAR: unit not given here; settings: P.aeruginosa
Protocol: as §1

[4] = system: P. acnes; experiment: Activity against extended panel of P. acnes; assay type: cell-based; set-up: unit not given here
From the text: A very promising application for short bioactive peptides is for dermatological indications such as acne.

[5] = system: MRSA; experiment: Kill curve in 10% sheep serum-phosphate buffer against MRSA; assay type: cell-based, S. aureus; settings: 10% serum / biological environments

| Substance | Anti-microbial activity (MIC) [1] | Anti-microbial activity (MIC) [2] | other results |
| --- | --- | --- | --- |
| KPVWPW-NH2 [SEQ ID NO: 30] | >128 | >128 |  |
| KPWKFK-NH2 [SEQ ID NO: 29] | >128 | >128 |  |
| KWKFKF-NH2 [SEQ ID NO: 23] | >128 | >128 |  |
| KWKKLA-NH2 [SEQ ID NO: 22] | >128 | >128 |  |
| KWKKPV-NH2 [SEQ ID NO: 17] | >128 | >128 |  |
| KWKVFK-NH2 [SEQ ID NO: 24] | >128 | >128 |  |
| LAKLAK-NH2 [SEQ ID NO: 28] | >128 | >128 |  |
| LLKWPW-NH2 [SEQ ID NO: 33] | >128 | >128 |  |
| Myr-KFKWPW-NH2 (Myristoyl-KFKWPW-NH2; SMILES CCCCCCCCCCCCCC(=O)N[C@@H](CCCCN)C(=O)N[C@@H](Cc1ccccc1)C(=O)N[C@@H](CCCCN)C(=O)N[C@@H](Cc1c[nH]c2ccccc12)C(=O)N1CCC[C@H]1C(=O)N[C@@H](Cc1c[nH]c2ccccc12)C(N)=O) [SEQ ID NO: 77] |  |  | MIC, lipid length SAR [2]: >128; MIC, lipid length SAR [3]: 64-128 |
| Non-KFKWPW-NH2 (Nonanoyl-KFKWPW-NH2; SMILES CCCCCCCCC(=O)N[C@@H](CCCCN)C(=O)N[C@@H](Cc1ccccc1)C(=O)N[C@@H](CCCCN)C(=O)N[C@@H](Cc1c[nH]c2ccccc12)C(=O)N1CCC[C@H]1C(=O)N[C@@H](Cc1c[nH]c2ccccc12)C(N)=O) [SEQ ID NO: 70] |  |  | MIC, lipid length SAR [2]: 16; MIC, lipid length SAR [3]: 32-64 |
| OIe-KFKWPW-NH2 (Oleoyl-KFKWPW-NH2; SMILES CCCCCCCC/C=C\CCCCCCCC(=O)N[C@@H](CCCCN)C(=O)N[C@@H](Cc1ccccc1)C(=O)N[C@@H](CCCCN)C(=O)N[C@@H](Cc1c[nH]c2ccccc12)C(=O)N1CCC[C@H]1C(=O)N[C@@H](Cc1c[nH]c2ccccc12)C(N)=O) [SEQ ID NO: 75] |  |  | MIC, lipid length SAR [2]: >128; MIC, lipid length SAR [3]: >128 |
| Oct-kfkwpw-HN2 (Octanoyl-[dK][dF][dK][dW][dP][dW]-NH2; SMILES CCCCCCCC(=O)N[C@H](CCCCN)C(=O)N[C@H](Cc1ccccc1)C(=O)N[C@H](CCCCN)C(=O)N[C@H](Cc1c[nH]c2ccccc12)C(=O)N1CCC[C@@H]1C(=O)N[C@H](Cc1c[nH]c2ccccc12)C(N)=O) [SEQ ID NO: 81] |  |  | Activity (MIC) against P. acnes ([4]; ATCC 6921): 4; Activity (MIC) against P. acnes ([4]; ATCC 6922): 8; Activity (MIC) against P. acnes ([4]; ATCC 6923): 8; Activity (MIC) against P. acnes ([4]; ATCC 11828): 8; Activity (MIC) against P. acnes ([4]; ATCC 12930): 2; Activity (MIC) against P. acnes ([4]; ATCC 25746): 0.25; Activity (MIC) against P. acnes ([4]; ATCC 29399): 8; Activity (MIC) against P. acnes ([4]; ATCC 33179): 16; Activity (MIC) against P. acnes ([4]; ATCC 49929): 0.125; Activity (MIC) against P. acnes ([4]; ATCC 51277): 8 |
| Pal-KFKWPW-NH2 (Palmitoyl-KFKWPW-NH2; SMILES CCCCCCCCCCCCCCCC(=O)N[C@@H](CCCCN)C(=O)N[C@@H](Cc1ccccc1)C(=O)N[C@@H](CCCCN)C(=O)N[C@@H](Cc1c[nH]c2ccccc12)C(=O)N1CCC[C@H]1C(=O)N[C@@H](Cc1c[nH]c2ccccc12)C(N)=O) [SEQ ID NO: 73] |  |  | MIC, lipid length SAR [2]: >128; MIC, lipid length SAR [3]: >128 |
| RKTWPW-NH2 [SEQ ID NO: 15] | >128 | >128 |  |
| SEQ ID NO:56 (Octanoyl-KWKWFW-NH2; SMILES CCCCCCCC(=O)N[C@@H](CCCCN)C(=O)N[C@@H](Cc1c[nH]c2ccccc12)C(=O)N[C@@H](CCCCN)C(=O)N[C@@H](Cc1c[nH]c2ccccc12)C(=O)N[C@@H](Cc1ccccc1)C(=O)N[C@@H](Cc1c[nH]c2ccccc12)C(N)=O) |  |  | ability to kill S. aureus in serum (in words) [5]: does not perform well in biological environments |
| Ste-KFKWPW-NH2 (Stearoyl-KFKWPW-NH2; SMILES CCCCCCCCCCCCCCCCCC(=O)N[C@@H](CCCCN)C(=O)N[C@@H](Cc1ccccc1)C(=O)N[C@@H](CCCCN)C(=O)N[C@@H](Cc1c[nH]c2ccccc12)C(=O)N1CCC[C@H]1C(=O)N[C@@H](Cc1c[nH]c2ccccc12)C(N)=O) [SEQ ID NO: 74] |  |  | MIC, lipid length SAR [2]: >128; MIC, lipid length SAR [3]: >128 |
| VAKKWK-NH2 [SEQ ID NO: 25] | >128 | >128 |  |
| VAKLAK-NH2 [SEQ ID NO: 19] | >128 | >128 |  |
| VKVKPV-NH2 [SEQ ID NO: 13] | >128 | >128 |  |
